Test results from ChEMBL document CHEMBL3045948, “Design, synthesis, and potential CNS activity of some new bioactive 1-(4-substituted-phenyl)-3-(4-oxo-2-methyl-4H-quinazolin-3-yl)-urea” (Med Chem Res, 2011).
The source made the active and inactive calls. The calls are words filed in the database; no cut-off is given here.

Tests used:
Mus musculus [1] = test: (§1) Neurotoxicity in ip dosed Mus musculus (mouse) after 0.5 hr by rotorod test; assay type: toxicity, organism-based; conditions: in vivo, 0.5 h
Mus musculus [2] = test: Sedative-hypnotic activity in Mus musculus (mouse) assessed as inhibition of locomotory activity at 100 mg/kg, ip measured after 1 hr by actophotometer test; assay type: functional; conditions: route intraperitoneal
Mus musculus [3] = test: (§2) Neurotoxicity in ip dosed Mus musculus (mouse) after 4 hr by rotorod test; assay type: toxicity, organism-based; conditions: in vivo, 4 h
Mus musculus [4] = test: Anticonvulsant activity in ip dosed Mus musculus (mouse) assessed as protection against maximal electroshock-induced seizure measured after 4 hr; assay type: functional; conditions: read-out: MED
Mus musculus [5] = test: Anticonvulsant activity in Mus musculus (mouse) assessed as protection against subcutaneous pentyleneterazole-induced seizure at 300 mg/kg, ip measured after 4 hr; assay type: functional, organism-based; parameters: dose 300 mg/kg
Mus musculus [6] = test: Anticonvulsant activity in ip dosed Mus musculus (mouse) assessed as protection against maximal electroshock-induced seizure measured after 0.5 hr; assay type: functional; conditions: read-out: MED
Mus musculus [7] = test: Anticonvulsant activity in Mus musculus (mouse) assessed as protection against subcutaneous pentyleneterazole-induced seizure at 300 mg/kg, ip measured after 0.5 hr; assay type: functional, organism-based; parameters: dose 300 mg/kg
[8] = as §1; assay type: toxicity, organism-based; conditions: in vivo
Mus musculus [9] = test: Anticonvulsant activity in Mus musculus (mouse) assessed as protection against maximal electroshock-induced seizure at 300 mg/kg, ip measured after 4 hr; assay type: functional, organism-based; parameters: dose 300 mg/kg
[10] = as §2; assay type: toxicity, organism-based; conditions: in vivo
Mus musculus [11] = test: Anticonvulsant activity in ip dosed Mus musculus (mouse) assessed as protection against subcutaneous pentyleneterazole-induced seizure measured after 0.5 hr; assay type: functional; conditions: read-out: MED
Mus musculus [12] = test: Anticonvulsant activity in Mus musculus (mouse) assessed as protection against maximal electroshock-induced seizure at 300 mg/kg, ip measured after 0.5 hr; assay type: functional, organism-based; parameters: dose 300 mg/kg
Rattus norvegicus = test: CNS depressant activity in Rattus norvegicus Wistar (rat) assessed as immobility time at 100 mg/kg, ip measured after 60 min by forced swim test (reference value: 45.6 +/- 19.45 to 180.97 +/- 14.15 sec); assay type: functional; conditions: route intraperitoneal
Mus musculus [13] = test: Anticonvulsant activity in ip dosed Mus musculus (mouse) assessed as protection against subcutaneous pentyleneterazole-induced seizure measured after 4 hr; assay type: functional; conditions: read-out: MED

Row | SMILES | MTC (Mus musculus [1]) [mg/kg] | inhibition in vivo at 100 mg/kg (Mus musculus [2]) [%] | MTC (Mus musculus [3]) [mg/kg] | minimal effective dose (Mus musculus [4]) [mg/kg] | Activity (Mus musculus [5]) | minimal effective dose (Mus musculus [6]) [mg/kg] | Activity (Mus musculus [7]) | MTD at 0.5 h [8] [mg/kg] | Activity (Mus musculus [9]) | MTD at 4 h [10] [mg/kg] | minimal effective dose (Mus musculus [11]) [mg/kg] | Activity (Mus musculus [12]) | Time (Rattus norvegicus) [s] | minimal effective dose (Mus musculus [13]) [mg/kg]
1 | O=C1NC(=O)C(c2ccccc2)(c2ccccc2)N1 [PHENYTOIN] | 100 | 70 | 100 | 30 | inactive | 30 | inactive |  |  |  |  |  |  | 
2 | CCCC(CCC)C(=O)[O-].[Na+] [VALPROATE SODIUM] |  |  |  |  | inactive |  |  | 300 | inactive | 300 | 300 | inactive |  | 
3 | Cc1ccccc1NC(=O)Nn1c(C)nc2ccccc2c1=O |  | 51 |  |  | inactive |  | inactive | 300 | inactive | 300 |  | inactive | 226.29 | 
4 | Cc1nc2ccccc2c(=O)n1NC(=O)Nc1ccc(I)cc1 |  | 53 |  |  | inactive |  | inactive | 300 | inactive | 300 |  | inactive | 194.05 | 
5 | Cc1nc2ccccc2c(=O)n1NC(=O)Nc1ccc([N+](=O)[O-])cc1 |  | 40 |  |  | inactive |  | inactive | 300 | inactive | 300 |  | inactive | 190.29 | 
6 | CCC1(C)CC(=O)NC1=O (stereo unspecified) [ETHOSUXIMIDE] |  |  |  |  | inactive |  |  |  | inactive |  | 300 | inactive |  | 
7 | Cc1nc2ccccc2c(=O)n1NC(=O)Nc1ccc(Cl)cc1 | 300 | 48 | 300 |  | inactive | 300 |  |  | inactive |  | 300 |  | 204.7 | 
8 | NC(=O)N1c2ccccc2C=Cc2ccccc21 [CARBAMAZEPINE] | 100 |  | 300 | 100 |  | 30 |  |  |  |  | 100 |  | 240.3 | 300
9 | Cc1nc2ccccc2c(=O)n1NC(=O)Nc1ccc(Br)cc1 | 300 | 51 |  |  | inactive | 300 |  |  | inactive | 300 | 300 |  | 70.63 | 
10 | COc1ccc(NC(=O)Nn2c(C)nc3ccccc3c2=O)cc1 |  | 42 |  |  | inactive |  | inactive | 300 | inactive | 300 |  | inactive | 202.29 | 
11 | Cc1cccc(NC(=O)Nn2c(C)nc3ccccc3c2=O)c1 |  | 51 |  |  | inactive |  | inactive | 300 | inactive | 300 |  | inactive | 218.29 | 
12 | CCC1(c2ccccc2)C(=O)NC(=O)NC1=O [PHENOBARBITAL] | 100 |  | 300 | 30 |  | 100 |  |  |  |  | 30 |  |  | 300
13 | Cc1nc2ccccc2c(=O)n1NC(=O)Nc1ccccc1 | 300 | 50 |  |  | inactive |  | inactive |  | inactive | 300 |  | inactive | 130.56 | 
14 | Cc1nc2ccccc2c(=O)n1NC(=O)Nc1ccc(F)cc1 |  | 45 |  |  | inactive |  | inactive | 300 | inactive | 300 |  | inactive | 188.16 | 
15 | CCOc1ccc(NC(=O)Nn2c(C)nc3ccccc3c2=O)cc1 | 300 | 45 | 300 |  | inactive |  | inactive |  | inactive |  |  | inactive | 198.29 | 
16 | CCc1ccc(NC(=O)Nn2c(C)nc3ccccc3c2=O)cc1 |  | 53 |  | 300 | inactive | 300 |  | 300 |  | 300 | 300 |  | 208.29 | 
17 | Cc1ccc(NC(=O)Nn2c(C)nc3ccccc3c2=O)cc1 |  | 52 |  |  | inactive |  | inactive | 300 | inactive | 300 |  | inactive | 210.29 | 
